Data taken from patent publication US9334256B2, “Agents and methods for treating ischemic and other diseases” (NoNO INC., priority 2011, dated 2016).
“Also recorded” adds a separate entry of the source.

Assays:
neurons = assay: Sublethal neuronal stretch injury model, survival by PI fluorescence; format: cell-based; settings: applied 1 hour after stretch injury, PI fluorescence 24 hours after; FIG. 3
Method: Likewise, TRPM7 inhibitors are also expected to provide neuroprotection to other types of brain injuries. […] This model is described in Arundine et al, (J. Neurosci, 2004:8106-23). TRPM7 inhibitors such as M21 were applied 1 hour after stretch injury and cells were assessed for survival by PI fluorescence 24 hours after the injury. […] Thus, this assay can be predictive of in vivo efficacy.

[1] = tested on: rat brains subjected to concussive brain trauma; assay: Fluid percussion injury (FPI) model, TTC staining of brain sections; format: in vivo; settings: applied prior to the injury or 1 hour after; 2-6 atm injury; FIG. 1
Method: Inhibitors of TRPM7 were tested for their ability to provide neuroprotection to rat brains subjected to concussive brain trauma using a rodent model of fluid percussion injury (FPI). FPI was performed as described in the literature using 350-370 g male Sprague Dawley rats (Charles River, St. Constant, Quebec, Canada). In brief, 24 h before injury, the animal was anesthetized using 2% halothane and 2:1 nitrous oxide:oxygen. A 4.8 mm craniotomy was made with its center between the bregma and lambda and between the sagittal suture and right temporal ridge. A modified Leur-loc fitting was attached over the craniotomy and cemented in place using Acron MC/R dental acrylic (GC America, Alsip, Ill.). The Leur-loc was filled with saline, and a small piece of gelfoam was inserted. The incision was sutured, and the animal was returned to its cage overnight if not used same day. The following day, the incision was reopened, cleaned, and the gelfoam was removed. […] Injury severity was recorded using an oscilloscope attached to a transducer, and by sectioning the brains and staining with 2,3,5-Triphenyltetrazolium chloride staining (TTC). […]
Likewise, TRPM7 inhibitors are also expected to provide neuroprotection to other types of brain injuries. […] TRPM7 inhibitors such as M21 were applied 1 hour after stretch injury and cells were assessed for survival by PI fluorescence 24 hours after the injury. […]

cancer cell lines = assay: Cell proliferation studies, cancer cell lines in general; format: cell-based; settings: summary statement
Method: Cells were grown to 70% confluency, trypsinized, counted, and seeded in 96-well flat-bottom plates at a final concentration of 2.5×10^3-5.0×10^3 cells/well in growth media containing 5% FBS (Day 0). Other well sizes and cell densities were used successfully as well. Cells were allowed to incubate in growth media for 24 hours to allow for maximum adhesion. Treatment with the test agent began on Day 1 and continued for 72 hours either with or without retreatment. At the 72 hour time point, viable cell numbers are quantified by the CellTiter-Glo® cell viability assay as described above, or using standard MTT, SRB or BrDU assays. Experiments were repeated at least twice with the same concentrations to determine growth inhibitory activity. […] In an alternative format, this assay was used to screen potential TRPM7 inhibitory compounds at a fixed concentration, usually 5 or 10 uM. Alternatively, lower or higher concentrations were used. […] Thus, for the compounds in Table 1, all are potential anti-cancer agents. Some, like 399 and 509, are more general and may be effective against a wide range of cancers. Others, like 2785, are more specific and may be effective against a subset of cancers.
Data Collection—For the cell proliferation studies, data from each experiment was collected and expressed as % Cell Growth using the following calculation: % Cell Growth=(ftest/fvehicle)×100 Where ftest is the luminescent signal of the tested sample, and fvehicle is the luminescence of the vehicle in which the drug is dissolved (or appropriate measure for the other viability/proliferation measures). Dose response graphs and IC50 values were generated using standard software using the following variable slope equation: […]

TRPM7 ion channel = molecular target: T1, TRPM7 ion channel (Mus musculus, UniProt Q923J1); assay: Whole-cell patch clamp of TRPM7 currents in HEK293 cells; format: cell-based; settings: value shown = concentration at which the compound significantly inhibits the ion channel
T1 construct: expressed in transfected cells; host or cells: TRPM7-tet-on HEK293 cells
Method: To further understand the structure function relationships between the TRPM7 inhibitors identified in the TRPM7-dependent HEK death assay, the activity of a subset of these inhibitors described herein were tested for their ability to inhibit TRPM7 currents in cell systems. Whole-cell patch clamp recordings were used essentially as described to test the TRPM7 inhibitors in HEK293 cells, H9c2 cardiomyocytes and cultured neurons. […] Those that provide >10% inhibition of TRPM7 channel activity in the HEK293 cell system were labeled with the concentration tested (generally 5 uM). Thus, the compounds in this table marked with such a value are able to block the activity gof the TRPM7 ion channel. FIGS. 2A-C provide an example of this for the TRPM7 inhibitor 399 (Structure 9). […] Numbers in brackets indicate the number of independent tests, and the bars represent the SEM.
Whole-cell currents were recorded using an Axopatch 1D or MultiClamp 700B amplifier and were digitized at 10 kHz and low-pass filtered at 2 kHz, at room temperature. pClamp10 software was used for data acquisition and analysis. Patch electrodes were pulled from Borosilicate glass and fire polished to a resistance of 2-4 MΩ. All drugs were administrated directly to cell bodies under recording through the fast exchange perfusion system.
The intracellular solution (ICS) contains (mM) 145 Cs-methanesulfonate, 8 NaCl, l MgCl2, 4.1 CaCl2, 10 EGTA, and 10 HEPES, 5 ATP, pH at 7.4, with 300-305 mOsm. The extracellular solution (ECS) contains (mM) 140 NaCl, 5 KCl, 2 CaCl2, 20 HEPES, and 10 glucose, pH at 7.4 and with 315-320 mOsm.
Voltage stimuli lasting 250 ms were delivered at 5-s intervals with voltage ramps ranging from −100 to +100 mV. The current values at −80 mV and +80 mV on I-V curve represent the measures of inward and outward current respectively.
Table X and FIGS. 7-51 show screening data for several additional compounds that are variants of M5, M6 or M21. The synthesis of compounds of Table X and FIGS. 7-51 is shown in Appendices A-C. The compounds shown in FIGS. 7-51 can be related to the appropriate row of Table X by the compound number shown in the figures and in the first column of Table X. The compounds in Table X other than M5, M6 and M21 themselves, are believed to be novel. The Table provides a number identifying the compound, its structurer, molecular weight and its cluster (i.e., whether the compound resembles M5, M6 or M21). The three columns relations to PI uptake describe the results of screening the compounds in the type of assay from Example 1. […] The last two columns show an effect on proliferation of Weri retinoblastoma or HeLa cervical cancer cells. Inhibition of proliferation is a measure of anti-neoplastic activity. […] If no data is shown, no test was performed.

[2] = tested on: rats subjected to lateral FPI; assay: Distance traveled and activity post FPI; format: in vivo, rat; settings: FIG. 4B
From the text: (§1) Thus, M21 and TRPM7 inhibitors are effective treatments to reduce the damaging effects of neurotrauma, including concussions.

[3] = tested on: rats subjected to lateral FPI; assay: Rotarod performance after lateral FPI; format: in vivo, rat; settings: FIG. 4A
From the text: as §1

T1 sequence (Q923J1 whole entry): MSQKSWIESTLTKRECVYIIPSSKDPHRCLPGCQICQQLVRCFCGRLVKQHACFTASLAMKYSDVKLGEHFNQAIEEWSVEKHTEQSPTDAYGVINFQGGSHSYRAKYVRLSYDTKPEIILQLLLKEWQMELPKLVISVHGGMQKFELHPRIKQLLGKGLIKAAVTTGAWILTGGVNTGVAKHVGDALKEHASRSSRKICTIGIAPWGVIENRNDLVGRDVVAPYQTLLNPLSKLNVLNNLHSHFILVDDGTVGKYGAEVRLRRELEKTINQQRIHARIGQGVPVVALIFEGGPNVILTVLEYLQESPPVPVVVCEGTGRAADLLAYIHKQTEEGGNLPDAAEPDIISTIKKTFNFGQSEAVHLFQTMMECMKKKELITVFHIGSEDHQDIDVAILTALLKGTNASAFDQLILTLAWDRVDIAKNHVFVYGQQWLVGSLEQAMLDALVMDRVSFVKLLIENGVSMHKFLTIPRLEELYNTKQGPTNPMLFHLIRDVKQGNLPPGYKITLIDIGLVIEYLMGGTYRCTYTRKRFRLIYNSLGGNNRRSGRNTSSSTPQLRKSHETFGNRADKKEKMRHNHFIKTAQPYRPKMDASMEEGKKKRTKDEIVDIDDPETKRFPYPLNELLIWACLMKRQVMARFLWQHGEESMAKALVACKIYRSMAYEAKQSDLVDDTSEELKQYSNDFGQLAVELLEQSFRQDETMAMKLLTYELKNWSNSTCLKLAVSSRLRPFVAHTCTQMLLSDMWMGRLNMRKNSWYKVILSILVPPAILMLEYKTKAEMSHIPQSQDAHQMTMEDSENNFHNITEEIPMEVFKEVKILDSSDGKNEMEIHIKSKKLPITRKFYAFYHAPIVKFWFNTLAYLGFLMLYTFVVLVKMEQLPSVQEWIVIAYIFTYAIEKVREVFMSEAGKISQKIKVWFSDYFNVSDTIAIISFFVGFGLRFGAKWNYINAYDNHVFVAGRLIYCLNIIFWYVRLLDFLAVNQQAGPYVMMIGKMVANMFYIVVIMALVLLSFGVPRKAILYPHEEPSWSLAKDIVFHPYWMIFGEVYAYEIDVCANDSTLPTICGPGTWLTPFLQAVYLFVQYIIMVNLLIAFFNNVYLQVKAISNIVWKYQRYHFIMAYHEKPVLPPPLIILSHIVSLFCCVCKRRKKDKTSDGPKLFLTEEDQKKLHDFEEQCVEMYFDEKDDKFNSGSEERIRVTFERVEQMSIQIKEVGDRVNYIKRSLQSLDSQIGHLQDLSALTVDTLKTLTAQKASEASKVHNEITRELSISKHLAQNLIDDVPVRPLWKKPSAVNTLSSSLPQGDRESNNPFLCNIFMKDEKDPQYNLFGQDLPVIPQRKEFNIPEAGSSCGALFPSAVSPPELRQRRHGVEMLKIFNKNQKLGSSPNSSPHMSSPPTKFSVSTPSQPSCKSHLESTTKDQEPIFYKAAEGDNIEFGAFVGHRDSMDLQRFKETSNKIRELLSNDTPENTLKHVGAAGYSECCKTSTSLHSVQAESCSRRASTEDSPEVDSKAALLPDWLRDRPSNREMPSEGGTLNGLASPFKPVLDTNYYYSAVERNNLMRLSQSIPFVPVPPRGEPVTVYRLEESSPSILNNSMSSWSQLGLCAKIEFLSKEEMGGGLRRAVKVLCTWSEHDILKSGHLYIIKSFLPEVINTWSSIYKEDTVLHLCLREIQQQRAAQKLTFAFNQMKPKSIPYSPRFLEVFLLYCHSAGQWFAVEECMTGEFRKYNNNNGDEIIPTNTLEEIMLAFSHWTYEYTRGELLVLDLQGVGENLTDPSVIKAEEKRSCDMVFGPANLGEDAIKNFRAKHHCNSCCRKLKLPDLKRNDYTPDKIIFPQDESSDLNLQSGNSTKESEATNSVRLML

## Cc1c(Cc2ccc(Cl)c(Cl)c2)c(=O)oc2cc(O)ccc12 [Compound M21]
neurons
  protection from cell death after stretch injury: can protect neurons from cell death due to stretch injuries; also recorded: increased protection from cell death
[1]
  protection of rat brains from fluid percussion-induced neuronal damage: able to protect the brain from injuries sustained from concussive trauma; also recorded: significant protection
Cancer cell lines
  inhibition of proliferation of cancer cell lines: effective in inhibiting proliferation of a retinoblastoma cell line
TRPM7 ion channel
  TRPM7 current: 5 μM (Those that provide >10% inhibition of TRPM7 channel activity in the HEK293 cell system were labeled with the concentration tested (generally 5 uM))
[2]
  distance traveled and activity post FPI: comparable to uninjured animals
[3]
  time able to maintain balance on the Rotarod relative to injured animals treated with vehicle alone: twice the time
[3]; first day post injury, compared to FPI+Vehicle
  Rotarod performance (mean latency): near wild type levels of performance
